Source: US8258122B2, “3-([1,2,4]triazolo[4,3-a]pyridin-7-yl)benzamide derivatives” (Almirall, S.A., priority 2007, dated 2012)

molecular target: T1, human p38alfa (SAPKa) enzyme (Homo sapiens, UniProt Q16539); experiment: p38 enzymatic inhibition assay (FRET, biotinylated ATF2 substrate); assay type: biochemical; settings: 1 h pre-incubation; ATF2 0.62 μM, ATP 60 μM; 25° C.; read-out: p38α IC50
T1 construct: purchased University of Dundee
Description: Enzymatic activity assay was performed in 96-well microtiter plates (Corning, catalog number # 3686) using a total volume of 50 μl of an assay buffer composed of 50 mM HEPES pH 7.5, 10 mM MgCl2, 1.75 mM Na3VO4.
Various concentrations of the test compound or vehicle controls were pre-incubated for one hour with 0.055 μg/ml of the human p38alfa (SAPKa) enzyme (obtained from University of Dundee). The reaction started by addition of biotinylated ATF2 substrate and ATP in concentrations around their Km values (final concentration 0.62 μM and 60 μM respectively) and took place for one hour at 25° C. Addition of the detection reagents, streptavidin—XL665 and anti-phosphoresidue antibody coupled to Europium cryptate, caused the juxtaposition of the cryptate and the XL665 fluorophore, resulting in fluorescence energy transfer (FRET). The FRET intensity depends on the amount of bounded cryptate antibody, which is proportional to the extent of substrate phosphorylation. FRET intensity was measured using Victor 2V spectrofluorometer.
Data were analyzed by non-linear regression (Hill equation) to generate a dose-response curve. The calculated IC50 value is the concentration of the test compound that caused a 50% decrease in the maximal FRET intensity.

T1 sequence (Q16539 whole entry): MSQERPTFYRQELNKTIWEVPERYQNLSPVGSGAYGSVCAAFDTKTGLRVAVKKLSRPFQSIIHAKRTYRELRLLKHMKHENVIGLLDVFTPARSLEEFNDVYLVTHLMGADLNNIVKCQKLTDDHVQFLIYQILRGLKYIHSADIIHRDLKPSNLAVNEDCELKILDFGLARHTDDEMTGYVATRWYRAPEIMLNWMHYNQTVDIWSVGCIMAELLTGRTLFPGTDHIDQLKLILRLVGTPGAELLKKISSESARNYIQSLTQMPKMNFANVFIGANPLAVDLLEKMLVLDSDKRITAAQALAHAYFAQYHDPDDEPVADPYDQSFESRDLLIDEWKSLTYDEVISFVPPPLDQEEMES

Row | SMILES | IC50
1 | Cc1ccc(C(=O)NC2CC2)cc1-c1ccn2c(-c3ccccc3Cl)nnc2c1 [Example 6, 3-(3-(2-Chlorophenyl)-[1,2,4]triazolo[4,3-a]pyridin-7-yl)-N-cyclopropyl-4-methylbenzamide] | 6 nM
2 | Cc1c(F)cc(C(=O)NC2CC2)cc1-c1ccn2c(C3CCOCC3)nnc2c1 [Example 33, N-Cyclopropyl-3-fluoro-4-methyl-5-[3-(tetrahydro-2H-pyran-4-yl)[1,2,4]triazolo[4,3-a]pyridin-7-yl]benzamide] | 30 nM
3 | Cc1c(F)cc(C(=O)NC2CC2)cc1-c1ccn2c(-c3ccncc3Cl)nnc2c1 [Example 31, 3-[3-(3-Chloropyridin-4-yl)[1,2,4]triazolo[4,3-a]pyridin-7-yl]-N-cyclopropyl-5-fluoro-4-methylbenzamide] | 0.3 nM
4 | Cc1ccc(C(=O)NC2CC2)cc1-c1ccn2c(-c3ccncc3Cl)nnc2c1 [Example 30, 3-[3-(3-Chloropyridin-4-yl)[1,2,4]triazolo[4,3-a]pyridin-7-yl]-N-cyclopropyl-4-methylbenzamide] | 38 nM
5 | CO[C@@H](C)c1nnc2cc(-c3cc(C(=O)NC4CC4)ccc3C)ccn12 [Example 38, N-Cyclopropyl-3-{3-[(1S)-1-methoxyethyl][1,2,4]triazolo[4,3-a]pyridin-7-yl}-4-methylbenzamide] | 38 nM
6 | Cc1c(F)cc(C(=O)NC2CC2)cc1-c1cc2nnc(C(C)(C)C)n2cc1F [Example 19, 3-(3-tert-Butyl-6-fluoro-[1,2,4]triazolo[4,3-a]pyridin-7-yl)-N-cyclopropyl-5-fluoro-4-methylbenzamide] | 2 nM
7 | Cc1ccc(C(=O)NC2CC2)cc1-c1ccn2c(N3CCCC3)nnc2c1 [Example 16, N-Cyclopropyl-4-methyl-3-(3-pyrrolidin-1-yl-[1,2,4]triazolo[4,3-a]pyridin-7-yl)-benzamide] | 83 nM
8 | Cc1c(F)cc(C(=O)NC2CC2)cc1-c1ccn2c(C(C)(C)C)nnc2c1 [Example 9, 3-(3-tert-Butyl-[1,2,4]triazolo[4,3-a]pyridin-7-yl)-N-cyclopropyl-5-fluoro-4-methylbenzamide] | 2 nM
9 | Cc1ccc(C(=O)NC2CC2)cc1-c1cc2nnc(C(C)(C)C)n2cc1F [Example 18, 3-(3-tert-Butyl-6-fluoro-[1,2,4]triazolo[4,3-a]pyridin-7-yl)-N-cyclopropyl-4-methylbenzamide] | 3.2 nM
10 | Cc1c(F)cc(C(=O)NC2CC2)cc1-c1c(F)cn2c(C(C)(C)N)nnc2c1F [Example 46, 3-[3-(1-Amino-1-methylethyl)-6,8-difluoro[1,2,4]triazolo[4,3-a]pyridin-7-yl]-N-cyclopropyl-5-fluoro-4-methylbenzamide] | 11.9 nM
11 | Cc1c(F)cc(C(=O)NC2CC2)cc1-c1c(F)cn2c(C(C)(C)N(C)C)nnc2c1F [Example 47, N-Cyclopropyl-3-{3-[1-(dimethylamino)-1-methylethyl]-6,8-difluoro[1,2,4]triazolo-[4,3-a]pyridin-7-yl}-5-fluoro-4-methylbenzamide] | 15.4 nM
12 | Cc1ccc(C(=O)NC2CC2)cc1-c1ccn2c(C(C)(C)C)nnc2c1 [Example 1, 3-(3-tert-Butyl-[1,2,4]triazolo[4,3-a]pyridin-7-yl)-N-cyclopropyl-4-methylbenzamide] | 16 nM
13 | Cc1c(F)cc(C(=O)NC2CC2)cc1-c1ccn2c(C(=O)N3CCCC3)nnc2c1 [Example 42, N-Cyclopropyl-3-fluoro-4-methyl-5-[3-(pyrrolidin-1-ylcarbonyl)[1,2,4]triazolo[4,3-a]pyridin-7-yl]benzamide] | 46 nM
14 | Cc1c(F)cc(C(=O)NC2CC2)cc1-c1c(F)cn2c(C3CC3)nnc2c1F [Example 23, N-cyclopropyl-3-(3-cyclopropyl-6,8-difluoro[1,2,4]triazolo[4,3-a]pyridin-7-yl)-5-fluoro-4-methylbenzamide] | 10 nM
15 | Cc1c(F)cc(C(=O)NC2CC2)cc1-c1ccn2c(C(C)(C)O)nnc2c1 [Example 45, N-Cyclopropyl-3-fluoro-5-[3-(1-hydroxy-1-methylethyl)[1,2,4]triazolo[4,3-a]pyridin-7-yl]-4-methylbenzamide] | 3.1 nM
16 | Cc1ccc(C(=O)NC2CC2)cc1-c1ccn2c(NCC3CC3)nnc2c1 [Example 7, N-Cyclopropyl-3-(3-(cyclopropylmethylamino)-[1,2,4]triazolo[4,3-a]pyridin-7-yl)-4-methylbenzamide] | 75 nM
17 | Cc1c(F)cc(C(=O)NC2CC2)cc1-c1ccn2c(C(C)C)nnc2c1 [Example 28, N-cyclopropyl-3-fluoro-5-(3-isopropyl[1,2,4]triazolo[4,3-a]pyridin-7-yl)-4-methylbenzamide] | 3 nM
